# Assay results reported in PMC7051184, “C9orf72 arginine-rich dipeptide repeat proteins disrupt karyopherin-mediated nuclear import” (eLife, 2020).
# Where a SMILES comes first, the peptide text is derived from it.
# Tests used:
# [1] = test system: Nup100(1-307); type: binding, S. cerevisiae; settings: AF488-labeled
# Protocol: (§1) The expression of GST- Nsp1(497-609) in BL21(DE3) cells grown in LB media was induced at OD600nm = 0.4–0.6, followed by incubation at 37°C for 3–5 hr. The GST-tagged S. cerevisiae pGEX-Nup100(1-307), Nup100(1-610), Nup116(348-458) and Nup116(348-458)F > A were expressed in T7 Shuffle cells (NEB) that were grown in Dynamite media ([Taylor et al., 2017]) until OD600nm = 0.9 before induction with IPTG at 37°C for 3 hr. All the GST-tagged Nup fragments were purified using glutathione-sepharose affinity chromatography, as described for the GST-GFP-NLS above, and dialyzed into PBS before storage.
# (§2) The bead halo assay was carried out as described with minor modifications ([Patel and Rexach, 2008]), using […] polystyrene beads coated with neutravidin (for biotinylated proteins) or glutathione (for GST-fusion proteins) (Spherotech, Lake Forest, IL). Beads were coated overnight at 4°C at saturating concentrations per manufacturers’ instructions and rinsed 2x in binding buffer (20 mM HEPES [pH 7.4], 150 mM KOAc, 2 mM Mg(OAc)2, 1 mM DTT, 0.1% Tween-20). Immediately prior to the assay, fluorescent bait proteins and beads were combined with 4x assay buffer (40 mM EDTA, 40 mg/ml BSA, 500 mM NaCl, and 0.2% Tween) to a total of 40 µL per well, in optical glass-bottom 96-well plates (Cellvis, Mountain View, CA). Reactions were allowed to equilibrate at room temperature for a minimum of 30 min prior to imaging at 100x on an LSM800 confocal microscope (Zeiss, Oberkochen, Germany). Intensity profiles comparing the maximum rim intensity to the background were plotted in ImageJ (NIH) by an investigator blinded to experimental conditions.
# [2] = test system: Nup100(1-610); type: binding, S. cerevisiae; settings: AF488-labeled
# Protocol: as §1, §2
# [3] = test system: transportin-1 (Tnpo1); test: DPR aggregation assay and western blot, Tnpo1; type: biochemical, human; settings: for Tnpo1 band density, Pellet / Tnpo1 band density, Supernatant: 100 µM 10mer in 2.5 mg/ml HEK lysate, normalized to untreated HEK; for TNPO1 band density, % untr control: Fig 5-suppl 3C, normalized to untreated HEK on same membrane;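 on TNPO1 band density, % untr control: RNA rows contain added 20 µg total HEK RNA while no-RNA rows lack it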
# Protocol: (§3) Supernatant and pellet fractions (for all 5 DPRs, and control/buffer only) were prepared as in the nuclear transport assays, by adding 100 µM 10mers to 2.5 mg/ml HEK lysate in 100 µL TRB. Supernatants were boiled in Laemmli (BioRad) for 5 min. Pellets were boiled for 15 min followed by sonication in order to fully disperse aggregates for SDS-PAGE. Equal volumes of supernatant and pellet fractions were run on 4–12% Bolt Bis-Tris Plus gels (ThermoFisher), transferred to nitrocellulose membrane using an iBlot2 dry blotting system (ThermoFisher). Protein loading was analyzed by BLOT-Faststain (G-biosciences, St. Louis, MO), according to the manufacterers’ instructions. For immunodetection, membranes were blocked with 5% non-fat milk in TBST and probed by sequential incubation with the primary antibodies as detailed in the table below. Detection was by HRP-conjugated secondary antibodies/chemiluminescence using an ImageQuant LAS 4000 system (GE, Chicago, IL). To permit sequential probing of membranes without stripping, signals were quenched by incubation with prewarmed 30% H20_2 for 20 min ([Sennepin et al., 2009]). Band intensities were measured by ImageQuant software. For pellet vs. supernatant fractions, all were expressed as percent untreated control. For blots in Figure 1E, samples were run on 4–20% SDS PAGE minigels (ThermoFisher) and blotted to PVDF membranes (Immun-Blot PVDF, Bio-Rad) using the Bio-Rad TransBlot Turbo apparatus, and probed as above. The chemiluminescence signal was captured with a Bio-Rad ChemiDoc XRS+ digital imaging system.
# [4] = test system: importin β; test: DPR aggregation assay and western blot, ImpB; type: biochemical, human; settings: for ImpB band density, Pellet / ImpB band density, Supernatant: 100 µM 10mer in 2.5 mg/ml HEK lysate, normalized to untreated HEK; for ImpB band density, % untr control: Fig 5-suppl 3C, normalized to untreated HEK on same membrane;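 on ImpB band density, % untr control: RNA rows contain added 20 µg total HEK RNA while no-RNA rows lack it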
# Protocol: as §3
# [5] = test system: importin α; test: DPR aggregation assay and western blot, ImpA; type: biochemical, human; settings: for ImpA band density, Pellet / ImpA band density, Supernatant: 100 µM 10mer in 2.5 mg/ml HEK lysate, normalized to untreated HEK; for ImpA band density, % untr control: Fig 5-suppl 3C, normalized to untreated HEK on same membrane;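 on ImpA band density, % untr control: RNA rows contain added 20 µg total HEK RNA while no-RNA rows lack it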
# Protocol: as §3
# [6] = test system: RanGAP1; test: DPR aggregation assay and western blot, RanGAP1; type: biochemical, human; settings: for RanGAP1 band density, Pellet / RanGAP1 band density, Supernatant: 100 µM 10mer in 2.5 mg/ml HEK lysate, normalized to untreated HEK; for RanGAP1 band density, % untr control: Fig 5-suppl 3C, normalized to untreated HEK on same membrane
# Protocol: as §3
# [7] = test system: TDP-43; test: DPR aggregation assay and western blot, TDP-43; type: biochemical, human; settings: for TDP43 band density, % untr control: Fig 5-suppl 3C, normalized to untreated HEK on same membrane; for TDP43 band density, % control: normalized to untreated HEK cells on the same membrane
# Protocol: as §3
# [8] = test system: RPS6; test: DPR aggregation assay and western blot, RPS6; type: biochemical, human; settings: for Rps6 band density, % untr control: Fig 5-suppl 3C, normalized to untreated HEK on same membrane; for RPS6 band density, % control: normalized to untreated HEK cells on the same membrane;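 on Rps6 band density, % untr control: RNA rows contain added 20 µg total HEK RNA while no-RNA rows lack it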
# Protocol: as §3
# [9] = test system: DDX3X; test: DPR aggregation assay and western blot, DDX3X; type: biochemical, human; settings: normalized to untreated HEK cells on the same membrane
# Protocol: as §3
# [10] = DPR aggregate formation in HEK lysate (pellet vs. supernatant, total protein); type: biochemical, human; settings: 100 µM
# Protocol: as §3, with “For blots in Figure 1E, samples were run on 4–20% SDS PAGE minigels (ThermoFisher) and blotted to PVDF membranes (Immun-Blot PVDF, Bio-Rad) using the Bio-Rad TransBlot Turbo apparatus, and probed as above. The chemiluminescence signal was captured with a Bio-Rad ChemiDoc XRS+ digital imaging system.” left out
# [11] = Pellet, no RNA (Untreated), blot 1
# [12] = Pellet, no RNA (Untreated), blot 2
# [13] = Supernatant, no RNA (Untreated), blot 1
# [14] = Supernatant, no RNA (Untreated), blot 2
smiles,measurement,setting,value
N=C(N)NCCC[C@H](NC(=O)[C@@H]1CCCN1C(=O)[C@H](CCCNC(=N)N)NC(=O)[C@@H]1CCCN1C(=O)[C@H](CCCNC(=N)N)NC(=O)[C@@H]1CCCN1C(=O)[C@H](CCCNC(=N)N)NC(=O)[C@@H]1CCCN1C(=O)[C@H](CCCNC(=N)N)NC(=O)[C@@H]1CCCN1C(=O)[C@H](CCCNC(=N)N)NC(=O)[C@@H]1CCCN1C(=O)[C@H](CCCNC(=N)N)NC(=O)[C@@H]1CCCN1C(=O)[C@H](CCCNC(=N)N)NC(=O)[C@@H]1CCCN1C(=O)[C@H](CCCNC(=N)N)NC(=O)[C@@H]1CCCN1C(=O)[C@H](CCCNC(=N)N)NC(=O)[C@@H]1CCCN1)C(=O)O [PR10] (H-PRPRPRPRPRPRPRPRPRPR-OH; N-terminus and C-terminus assumed),Binding to Nup100 GLFG-domain (halo intensity),[1]; binding buffer,modest selective binding
same,FG-binding with added unlabeled importin β,[1]; + unlabeled importin β,FG-binding could be augmented
same,Binding to Nup100 GLFG-domain (halo intensity),[2]; binding buffer,modest selective binding
same,FG-binding with added unlabeled importin β,[2]; + unlabeled importin β,FG-binding could be augmented
same,"Tnpo1 band density, Pellet",[3]; Blot 1,258.1 % control
same,"Tnpo1 band density, Supernatant",[3]; Blot 1,76.9 % control
same,"Tnpo1 band density, Pellet",[3]; Blot 2,476.3 % control
same,"Tnpo1 band density, Supernatant",[3]; Blot 2,65.0 % control
same,"TNPO1 band density, % untr control","[3]; Pellet, RNA, blot 1",162.49%
same,"TNPO1 band density, % untr control","[3]; Pellet, RNA, blot 2",169.58%
same,"TNPO1 band density, % untr control",[3]; [11],284.53%
same,"TNPO1 band density, % untr control",[3]; [12],326.13%
same,"TNPO1 band density, % untr control","[3]; Supernatant, RNA, blot 1",75.09%
same,"TNPO1 band density, % untr control","[3]; Supernatant, RNA, blot 2",93.47%
same,"TNPO1 band density, % untr control",[3]; [13],65.77%
same,"TNPO1 band density, % untr control",[3]; [14],83.87%
same,"ImpB band density, Pellet",[4]; Blot 1,818.3 % control
same,"ImpB band density, Supernatant",[4]; Blot 1,89.3 % control
same,"ImpB band density, Pellet",[4]; Blot 2,483.8 % control
same,"ImpB band density, Supernatant",[4]; Blot 2,77.0 % control
same,"ImpB band density, % untr control","[4]; Pellet, RNA, blot 1",176.94%
same,"ImpB band density, % untr control","[4]; Pellet, RNA, blot 2",208.79%
same,"ImpB band density, % untr control",[4]; [11],231.77%
same,"ImpB band density, % untr control",[4]; [12],273.94%
same,"ImpB band density, % untr control","[4]; Supernatant, RNA, blot 1",95.64%
same,"ImpB band density, % untr control","[4]; Supernatant, RNA, blot 2",121.54%
same,"ImpB band density, % untr control",[4]; [13],76.39%
same,"ImpB band density, % untr control",[4]; [14],117.49%
same,"ImpA band density, Pellet",[5]; Blot 1,170.0 % control
same,"ImpA band density, Supernatant",[5]; Blot 1,78.1 % control
same,"ImpA band density, Pellet",[5]; Blot 2,198.7 % control
same,"ImpA band density, Supernatant",[5]; Blot 2,90.0 % control
same,"ImpA band density, % untr control","[5]; Pellet, RNA, blot 1",171.92%
same,"ImpA band density, % untr control","[5]; Pellet, RNA, blot 2",154.07%
same,"ImpA band density, % untr control",[5]; [11],177.99%
same,"ImpA band density, % untr control",[5]; [12],181.79%
same,"ImpA band density, % untr control","[5]; Supernatant, RNA, blot 1",85.78%
same,"ImpA band density, % untr control","[5]; Supernatant, RNA, blot 2",111.13%
same,"ImpA band density, % untr control",[5]; [13],79.74%
same,"ImpA band density, % untr control",[5]; [14],105.29%
same,"RanGAP1 band density, Pellet",[6]; Blot 1,413.6 % control
same,"RanGAP1 band density, Supernatant",[6]; Blot 1,76.6 % control
same,"RanGAP1 band density, Pellet",[6]; Blot 2,481.7 % control
same,"RanGAP1 band density, Supernatant",[6]; Blot 2,84.2 % control
same,"RanGAP1 band density, % untr control","[6]; Pellet, RNA, blot 1",309.83%
same,"RanGAP1 band density, % untr control","[6]; Pellet, RNA, blot 2",267.45%
same,"RanGAP1 band density, % untr control",[6]; [11],288.68%
same,"RanGAP1 band density, % untr control",[6]; [12],278.19%
same,"RanGAP1 band density, % untr control","[6]; Supernatant, RNA, blot 1",115.69%
same,"RanGAP1 band density, % untr control","[6]; Supernatant, RNA, blot 2",95.48%
same,"RanGAP1 band density, % untr control",[6]; [13],62.58%
same,"RanGAP1 band density, % untr control",[6]; [14],76.25%
same,"TDP43 band density, % untr control","[7]; Pellet, RNA, blot 1",155.77%
same,"TDP43 band density, % untr control","[7]; Pellet, RNA, blot 2",157.99%
same,"TDP43 band density, % untr control",[7]; [11],180.16%
same,"TDP43 band density, % untr control",[7]; [12],165.43%
same,"TDP43 band density, % untr control","[7]; Supernatant, RNA, blot 1",71.23%
same,"TDP43 band density, % untr control","[7]; Supernatant, RNA, blot 2",80.31%
same,"TDP43 band density, % untr control",[7]; [13],41.29%
same,"TDP43 band density, % untr control",[7]; [14],36.83%
same,"TDP43 band density, % control","[7]; Pellet, Blot 1",424.3 % control
same,"TDP43 band density, % control","[7]; Pellet, Blot 2",185.6 % control
same,"TDP43 band density, % control","[7]; Supernatant, Blot 1",54.8 % control
same,"TDP43 band density, % control","[7]; Supernatant, Blot 2",45.9 % control
same,"Rps6 band density, % untr control","[8]; Pellet, RNA, blot 1",396.86%
same,"Rps6 band density, % untr control","[8]; Pellet, RNA, blot 2",295.15%
same,"Rps6 band density, % untr control",[8]; [11],455.82%
same,"Rps6 band density, % untr control",[8]; [12],297.04%
same,"Rps6 band density, % untr control","[8]; Supernatant, RNA, blot 1",8.34%
same,"Rps6 band density, % untr control","[8]; Supernatant, RNA, blot 2",9.83%
same,"Rps6 band density, % untr control",[8]; [13],2.35%
same,"Rps6 band density, % untr control",[8]; [14],1.09%
same,"RPS6 band density, % control","[8]; Pellet, Blot 1",219.0 % control
same,"RPS6 band density, % control","[8]; Pellet, Blot 2",275.0 % control
same,"RPS6 band density, % control","[8]; Supernatant, Blot 1",3.7 % control
same,"RPS6 band density, % control","[8]; Supernatant, Blot 2",6.4 % control
same,"DDX3X band density, % control","[9]; Pellet, Blot 1",156.6 % control
same,"DDX3X band density, % control","[9]; Pellet, Blot 2",221.4 % control
same,"DDX3X band density, % control","[9]; Supernatant, Blot 1",10.9 % control
same,"DDX3X band density, % control","[9]; Supernatant, Blot 2",1.8 % control
same,Depletion of NCT proteins from the supernatant,[10],not substantially depleted from the supernatant
